# Assay results from patent publication US20250171511A1, “ANTIVIRAL PEPTIDES AND METHODS OF USE THEREOF” (Versitech Limited, priority 2021, published 2025).
# Where no end group is shown, it is not given here. 4MPA = not defined here
# System: SARS-CoV-2 Delta variant
# Format: in vivo, hamster
# Details: 6 h exposure, 4 hamsters
substance,measurement,value
GAICHPVFCPRRYKQIGTCGLPGTKCCKKP-4MPA (cysteine pairing not given here; reading uncertain; also: printed as GAICHPVFCPRRYKQIGTCGLPGTKCCKKP-4MPA) [Peptide 4H30],transmission to naïve contact hamsters,25%
